One block for each molecule: values may come before it. Activity calls are given as the source filed them.
Legend:
[1] = molecular target: Type-1 angiotensin II receptor (Homo sapiens, UniProt P30556); assay: antagonism of angiotensin II type 1 receptor – cell-based, uHTS hits, selectivity assay for APJ receptor antagonist project, dose response (AID 463214); type: functional;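 further: antagonist potency against angiotensin II stimulated AT1 response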
Beta-galactosidase = Beta-galactosidase (Escherichia coli, UniProt Q8VNN2); assay: PubChem AID 485352; type: functional
Cytochrome P450 1A2 = molecular target: T1, Cytochrome P450 1A2 (Homo sapiens, UniProt P05177);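 further: PubChem cytochrome P450 panel assay, CYP1A2 panel member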
T1 sequence (P05177 whole entry): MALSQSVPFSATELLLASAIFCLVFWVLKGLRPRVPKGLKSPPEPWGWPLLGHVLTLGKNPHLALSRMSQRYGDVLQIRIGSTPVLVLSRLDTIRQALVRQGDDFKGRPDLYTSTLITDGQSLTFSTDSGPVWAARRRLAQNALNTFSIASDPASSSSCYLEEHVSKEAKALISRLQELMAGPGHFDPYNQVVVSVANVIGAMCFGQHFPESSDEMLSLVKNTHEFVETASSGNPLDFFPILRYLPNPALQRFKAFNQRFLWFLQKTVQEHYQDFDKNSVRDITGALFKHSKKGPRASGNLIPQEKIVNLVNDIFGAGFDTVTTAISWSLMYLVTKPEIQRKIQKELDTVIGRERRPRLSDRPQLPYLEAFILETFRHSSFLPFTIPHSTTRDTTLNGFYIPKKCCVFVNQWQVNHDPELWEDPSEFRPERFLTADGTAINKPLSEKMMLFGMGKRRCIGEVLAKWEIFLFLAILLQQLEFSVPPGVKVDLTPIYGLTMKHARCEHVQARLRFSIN

[2] = molecular target: Voltage-gated inwardly rectifying potassium channel KCNH2 (Homo sapiens, UniProt Q12809); conditions: Potency;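 further: confirmatory quantitative high-throughput screen measuring inhibition of hERG channel activity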
Cytochrome P450 2C19 = Cytochrome P450 2C19 (Homo sapiens, UniProt P33261); assay: Cytochrome panel assay with activity outcomes. Panel member name: p450-cyp2c19 Compounds with AC50 equal or less than 10 uM are considered active; type: functional; conditions: read-out: AC50
Orexin receptor type 2 [3] = molecular target: T2, Orexin receptor type 2 (Homo sapiens, UniProt O43614); assay: Counterscreen assay for antagonists of the orexin 1 receptor (OX1R; HCRTR1): Homogeneous Time Resolved Fluorescence (HTRF)-based cell-based dose response assay for antagonists of the orexin 2 receptor (OX2R; HCRTR2), run by assay provider.; type: functional
[4] = molecular target: T3, Orexin/Hypocretin receptor type 1 (Homo sapiens, UniProt O43613); assay: Homogeneous Time Resolved Fluorescence (HTRF)-based cell-based high throughput dose response assay for antagonists of the orexin 1 receptor (OX1R; HCRTR1). [Related pubchem assays (depositor defined):AID434989, AID435008, AID463079, AID485270, AID492963, AID492964, AID492965, AID493232, AID504717, AID504718]; type: functional
[5] = (§1) Counterscreen for antagonists of the orexin 1 receptor (OX1R; HCRTR1): Fluorescence-based cell-based high throughput dose response assay to identify antagonists of the parental CHO cell line. [Related pubchem assays (depositor defined):AID434989, AID435008, AID463079, AID485270, AID492963, AID492964, AID492965, AID493232, AID504699, AID504701]; type: functional
CHO-K1 = assay: as §1, with “Homogeneous time resolved fluorescence (HTRF)-based” for “Fluorescence-based”, “cell-based” for “cell-based high throughput”, “CHO-K1” for “CHO”; type: functional; conditions: Cricetulus griseus;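 further: potency for inhibition of ATP-stimulated IP1 production as antagonists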
Orexin receptor type 2 [6] = molecular target: T2, Orexin receptor type 2; assay: Counterscreen assay for antagonists of the orexin 1 receptor (OX1R; HCRTR1): Fluorescence-based cell-based dose response assay for antagonists of the orexin 2 receptor (OX2R; HCRTR2), run by assay provider.; type: functional
[7] = molecular target: T3, Orexin/Hypocretin receptor type 1; assay: Fluorescence-based cell-based high throughput dose response assay for antagonists of the orexin 1 receptor (OX1R; HCRTR1). [Related pubchem assays (depositor defined):AID434989, AID435008, AID463079, AID485270, AID492963, AID492964, AID492965, AID493232, AID504717, AID504718]; type: functional
[8] = molecular target: T4, Short transient receptor potential channel 4 (Mus musculus, UniProt Q9QUQ5); assay: SAR Analysis for the identification of selective inhibitors of the transient receptor potential cation channel C4 (TRPC4): TRPC4 Serotonin Receptor CRC MPD assay. [Related pubchem assays (depositor defined):AID2247, AID2256]; type: functional
T4 sequence (Q9QUQ5 whole entry): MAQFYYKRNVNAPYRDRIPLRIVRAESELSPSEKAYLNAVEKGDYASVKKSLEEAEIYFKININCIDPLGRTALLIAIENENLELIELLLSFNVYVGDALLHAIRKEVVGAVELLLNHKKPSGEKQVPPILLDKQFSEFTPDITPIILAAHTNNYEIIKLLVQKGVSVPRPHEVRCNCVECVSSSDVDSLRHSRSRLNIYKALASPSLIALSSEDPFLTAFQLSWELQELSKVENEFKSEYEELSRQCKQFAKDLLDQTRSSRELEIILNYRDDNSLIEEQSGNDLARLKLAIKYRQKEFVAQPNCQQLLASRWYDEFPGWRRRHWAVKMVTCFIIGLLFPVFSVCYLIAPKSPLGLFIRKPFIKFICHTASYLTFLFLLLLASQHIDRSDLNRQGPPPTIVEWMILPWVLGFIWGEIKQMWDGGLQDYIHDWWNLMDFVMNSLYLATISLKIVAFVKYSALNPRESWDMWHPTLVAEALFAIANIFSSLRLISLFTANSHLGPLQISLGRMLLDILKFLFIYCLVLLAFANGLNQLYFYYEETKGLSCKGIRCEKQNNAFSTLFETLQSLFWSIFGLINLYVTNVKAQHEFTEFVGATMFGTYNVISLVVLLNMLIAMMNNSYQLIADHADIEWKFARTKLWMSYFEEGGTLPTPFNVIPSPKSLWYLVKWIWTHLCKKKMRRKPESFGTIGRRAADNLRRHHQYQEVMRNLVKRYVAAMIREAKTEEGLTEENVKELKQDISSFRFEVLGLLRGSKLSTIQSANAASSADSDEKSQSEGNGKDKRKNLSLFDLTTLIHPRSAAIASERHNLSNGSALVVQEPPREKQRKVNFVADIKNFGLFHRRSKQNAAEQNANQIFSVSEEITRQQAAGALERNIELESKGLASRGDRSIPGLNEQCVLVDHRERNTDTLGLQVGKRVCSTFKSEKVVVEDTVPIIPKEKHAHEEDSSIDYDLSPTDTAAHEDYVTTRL

[9] = molecular target: Short transient receptor potential channel 6 (Mus musculus, UniProt Q61143); assay: mouse TRPC6 channel blockers, concentration series – HEK293 cells, membrane potential dye, IC50, selectivity assay for selective TRPC4 inhibitor project, dose response (AID 492987); type: functional, cell-based
[10] = molecular target: T4, Short transient receptor potential channel 4; assay: potency of mouse TRPC4 calcium flux blockers – cell-based, HEK293 TRPC4/mu-opioid, DAMGO stimulus, Fluo-4, dose response (AID 492994); type: functional
[11] = molecular target: T4, Short transient receptor potential channel 4; assay: SAR Analysis for the identification of selective inhibits of the transient receptor potential cation channel C4 (TRPC4): Automated Electrophysiology. [Related pubchem assays (depositor defined):AID2256]; type: functional
[12] = molecular target: T4, Short transient receptor potential channel 4; assay: mouse TRPC4 block via Gq-coupled stimulation – cell-based, acetylcholine stimulus, HEK293 TRPC4, Fluo-4, SAR follow-up (AID 492996); type: functional
[13] = molecular target: Luciferin 4-monooxygenase (Photuris pensylvanica, UniProt Q27757); assay: inhibition of Cell Titer Glo luciferase signal – biochemical, luminescence, cherry-picks, counter-screen for HSF-1 reporter inhibitor project, dose response (AID 588847)
HEK293 = assay: EBV LMP1 TES2 canonical NF-kB signalling blockers – cell-based, HEK293, luciferase, cherry-pick, dose response (AID 588343); type: functional; conditions: Homo sapiens
[14] = molecular target: Latent membrane protein 1 (Human herpesvirus 4 (strain B95-8), UniProt P03230); assay: LMP1 TES1 pathway selectivity over dsRED control – imaging, HEK293T, dual-color eGFP/dsRED, cherry-picks, selectivity assay for LMP1 NF-kB inhibitor project, dose response (AID 588398); type: functional, cell-based
[15] = molecular target: T5, Heat shock factor protein 1 (Mus musculus, UniProt P38532); assay: decrease of HSF1-responsive luciferase luminescence – cell-based, NIH3T3, dose retest, confirmation (AID 2382); type: functional;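 further: NIH3T3 fibroblasts with HSF1-driven luciferase reporter stressed by proteasome inhibitor MG132; luminescence from HSF1-driven luciferase expression after 8 hours of MG132 stress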
T5 sequence (P38532 whole entry): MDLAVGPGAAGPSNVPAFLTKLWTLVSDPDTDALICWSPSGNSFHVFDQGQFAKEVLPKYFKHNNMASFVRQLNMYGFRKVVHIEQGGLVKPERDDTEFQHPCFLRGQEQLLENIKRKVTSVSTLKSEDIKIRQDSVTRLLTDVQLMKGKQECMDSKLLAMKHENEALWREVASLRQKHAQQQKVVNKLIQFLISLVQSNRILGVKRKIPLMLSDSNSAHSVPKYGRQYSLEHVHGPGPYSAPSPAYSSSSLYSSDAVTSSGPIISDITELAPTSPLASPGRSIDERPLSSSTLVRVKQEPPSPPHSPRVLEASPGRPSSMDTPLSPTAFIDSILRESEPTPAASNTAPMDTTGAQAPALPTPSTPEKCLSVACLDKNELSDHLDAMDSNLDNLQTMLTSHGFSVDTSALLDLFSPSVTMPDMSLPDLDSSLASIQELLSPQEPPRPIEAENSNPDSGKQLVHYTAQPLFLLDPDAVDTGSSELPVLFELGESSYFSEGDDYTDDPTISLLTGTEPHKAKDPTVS

[16] = molecular target: Dual specificity tyrosine-phosphorylation-regulated kinase 1A (Rattus norvegicus, UniProt Q63470); type: biochemical, Homo sapiens
[17] = blockers of HIV-1 envelope-mediated cell-cell fusion – cherry-pick, dose response (AID 652057); type: functional, cell-based
[18] = HIV-1 AD8 envelope cell-cell fusion blockers – cherry-pick, dose response (AID 652062); type: functional, cell-based;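 further: luciferase signal from cell-cell fusion driven by HIV-1 clade B AD8 Env; potency is for inhibitors of fusion seen as a drop in luminescence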
[19] = off-target signal loss in HeLa-CEM21 co-culture – HeLa F-luc CTL cells, cherry-picked, counter-screen for HIV-1 Env fusion inhibitor project, dose response (AID 652040); type: functional, cell-based;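 further: potency for signal decrease marking cytotoxic or nonspecific inhibition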

T3 sequence (O43613 whole entry): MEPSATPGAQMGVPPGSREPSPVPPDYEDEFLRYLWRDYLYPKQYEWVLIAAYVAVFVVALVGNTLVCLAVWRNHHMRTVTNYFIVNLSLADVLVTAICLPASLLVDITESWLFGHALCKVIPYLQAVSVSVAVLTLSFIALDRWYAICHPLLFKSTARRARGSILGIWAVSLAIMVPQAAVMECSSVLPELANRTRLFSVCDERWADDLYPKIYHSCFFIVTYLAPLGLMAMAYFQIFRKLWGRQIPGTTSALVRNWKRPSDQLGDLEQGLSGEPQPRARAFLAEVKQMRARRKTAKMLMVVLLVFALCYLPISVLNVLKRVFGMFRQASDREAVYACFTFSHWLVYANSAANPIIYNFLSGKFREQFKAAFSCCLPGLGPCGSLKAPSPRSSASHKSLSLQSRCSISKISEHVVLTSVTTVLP
T2 sequence (O43614 whole entry): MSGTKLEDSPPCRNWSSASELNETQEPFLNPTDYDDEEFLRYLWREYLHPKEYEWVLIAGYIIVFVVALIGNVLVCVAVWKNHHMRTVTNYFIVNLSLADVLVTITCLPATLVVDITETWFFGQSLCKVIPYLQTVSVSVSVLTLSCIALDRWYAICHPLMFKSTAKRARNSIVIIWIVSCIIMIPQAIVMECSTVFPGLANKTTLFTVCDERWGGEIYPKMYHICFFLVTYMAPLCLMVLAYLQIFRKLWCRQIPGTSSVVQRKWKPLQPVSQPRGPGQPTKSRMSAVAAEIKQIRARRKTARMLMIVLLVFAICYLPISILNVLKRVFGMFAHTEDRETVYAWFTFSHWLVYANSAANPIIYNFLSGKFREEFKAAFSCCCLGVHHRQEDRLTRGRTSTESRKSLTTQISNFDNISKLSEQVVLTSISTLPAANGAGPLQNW
Chain of Beta-galactosidase (Q8VNN2 whole entry): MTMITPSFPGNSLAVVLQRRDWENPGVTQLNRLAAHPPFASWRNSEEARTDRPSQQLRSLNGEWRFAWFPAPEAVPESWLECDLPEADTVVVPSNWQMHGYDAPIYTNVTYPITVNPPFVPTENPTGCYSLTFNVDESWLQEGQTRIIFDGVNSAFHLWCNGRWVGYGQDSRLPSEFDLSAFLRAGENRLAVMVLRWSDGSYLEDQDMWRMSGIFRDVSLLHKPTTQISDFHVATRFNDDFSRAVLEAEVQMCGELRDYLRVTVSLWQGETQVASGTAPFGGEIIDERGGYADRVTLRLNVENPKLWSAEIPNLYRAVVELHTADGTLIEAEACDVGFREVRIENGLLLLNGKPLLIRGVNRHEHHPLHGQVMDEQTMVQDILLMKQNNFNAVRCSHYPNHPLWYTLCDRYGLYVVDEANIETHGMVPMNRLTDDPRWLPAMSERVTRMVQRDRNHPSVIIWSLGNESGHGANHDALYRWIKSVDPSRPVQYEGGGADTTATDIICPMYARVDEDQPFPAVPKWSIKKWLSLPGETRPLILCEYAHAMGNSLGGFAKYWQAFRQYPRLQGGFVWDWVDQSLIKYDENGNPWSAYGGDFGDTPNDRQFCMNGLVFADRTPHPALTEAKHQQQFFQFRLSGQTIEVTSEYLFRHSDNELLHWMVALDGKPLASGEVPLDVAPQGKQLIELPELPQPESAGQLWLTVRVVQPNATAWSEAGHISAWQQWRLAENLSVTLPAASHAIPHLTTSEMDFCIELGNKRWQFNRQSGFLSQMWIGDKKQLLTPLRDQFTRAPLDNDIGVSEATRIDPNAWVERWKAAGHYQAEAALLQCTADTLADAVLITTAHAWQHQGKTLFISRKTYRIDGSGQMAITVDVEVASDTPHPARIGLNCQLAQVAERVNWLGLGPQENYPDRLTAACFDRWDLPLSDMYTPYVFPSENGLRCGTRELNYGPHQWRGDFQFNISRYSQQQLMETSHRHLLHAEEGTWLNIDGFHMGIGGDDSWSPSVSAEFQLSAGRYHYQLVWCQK
Chain of Short transient receptor potential channel 6 (Q61143 whole entry): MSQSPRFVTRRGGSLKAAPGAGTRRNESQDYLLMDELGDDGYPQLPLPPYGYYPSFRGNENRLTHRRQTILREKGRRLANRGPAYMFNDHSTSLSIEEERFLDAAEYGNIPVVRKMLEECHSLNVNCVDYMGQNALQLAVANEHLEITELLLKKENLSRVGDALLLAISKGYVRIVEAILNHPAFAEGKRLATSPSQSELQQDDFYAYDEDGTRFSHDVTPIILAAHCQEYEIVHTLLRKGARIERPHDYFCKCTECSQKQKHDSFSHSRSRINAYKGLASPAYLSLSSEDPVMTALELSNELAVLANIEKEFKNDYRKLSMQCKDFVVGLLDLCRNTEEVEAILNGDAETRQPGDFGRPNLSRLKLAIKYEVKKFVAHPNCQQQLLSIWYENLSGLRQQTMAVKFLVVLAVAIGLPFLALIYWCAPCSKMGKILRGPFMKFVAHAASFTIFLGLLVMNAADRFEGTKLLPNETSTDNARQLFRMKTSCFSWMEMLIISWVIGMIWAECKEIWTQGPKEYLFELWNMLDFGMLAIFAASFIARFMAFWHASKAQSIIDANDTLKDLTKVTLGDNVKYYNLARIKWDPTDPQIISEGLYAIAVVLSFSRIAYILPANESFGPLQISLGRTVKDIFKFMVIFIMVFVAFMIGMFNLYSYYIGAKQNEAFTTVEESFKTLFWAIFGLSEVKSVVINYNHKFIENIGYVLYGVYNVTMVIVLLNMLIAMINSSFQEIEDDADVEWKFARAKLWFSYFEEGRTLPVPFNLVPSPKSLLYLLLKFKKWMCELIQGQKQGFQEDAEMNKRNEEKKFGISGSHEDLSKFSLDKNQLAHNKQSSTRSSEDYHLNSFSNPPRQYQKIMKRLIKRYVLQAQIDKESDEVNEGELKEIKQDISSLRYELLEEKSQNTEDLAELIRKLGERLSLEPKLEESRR
Chain of Latent membrane protein 1 (P03230 whole entry): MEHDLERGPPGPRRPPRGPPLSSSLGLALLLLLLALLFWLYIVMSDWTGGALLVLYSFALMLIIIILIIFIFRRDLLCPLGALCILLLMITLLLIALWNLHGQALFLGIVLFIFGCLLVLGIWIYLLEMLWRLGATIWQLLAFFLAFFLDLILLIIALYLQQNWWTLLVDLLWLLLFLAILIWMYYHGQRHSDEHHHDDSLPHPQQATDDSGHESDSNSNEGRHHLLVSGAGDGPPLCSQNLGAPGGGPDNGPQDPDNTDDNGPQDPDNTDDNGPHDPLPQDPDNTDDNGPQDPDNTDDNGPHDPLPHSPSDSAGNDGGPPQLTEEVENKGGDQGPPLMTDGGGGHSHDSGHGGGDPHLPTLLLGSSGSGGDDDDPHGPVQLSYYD
Chain of Type-1 angiotensin II receptor (P30556 whole entry): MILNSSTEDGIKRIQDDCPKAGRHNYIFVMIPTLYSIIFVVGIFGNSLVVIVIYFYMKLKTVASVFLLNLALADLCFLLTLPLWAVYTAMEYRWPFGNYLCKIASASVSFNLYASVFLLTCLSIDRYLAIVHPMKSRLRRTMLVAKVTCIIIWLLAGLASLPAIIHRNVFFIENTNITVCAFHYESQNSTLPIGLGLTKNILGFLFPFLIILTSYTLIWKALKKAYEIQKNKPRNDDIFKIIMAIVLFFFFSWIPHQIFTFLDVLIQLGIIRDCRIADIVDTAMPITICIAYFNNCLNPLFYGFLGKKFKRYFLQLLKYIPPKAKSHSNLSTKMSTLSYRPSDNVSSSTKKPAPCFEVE
Chain of Luciferin 4-monooxygenase (Q27757 whole entry): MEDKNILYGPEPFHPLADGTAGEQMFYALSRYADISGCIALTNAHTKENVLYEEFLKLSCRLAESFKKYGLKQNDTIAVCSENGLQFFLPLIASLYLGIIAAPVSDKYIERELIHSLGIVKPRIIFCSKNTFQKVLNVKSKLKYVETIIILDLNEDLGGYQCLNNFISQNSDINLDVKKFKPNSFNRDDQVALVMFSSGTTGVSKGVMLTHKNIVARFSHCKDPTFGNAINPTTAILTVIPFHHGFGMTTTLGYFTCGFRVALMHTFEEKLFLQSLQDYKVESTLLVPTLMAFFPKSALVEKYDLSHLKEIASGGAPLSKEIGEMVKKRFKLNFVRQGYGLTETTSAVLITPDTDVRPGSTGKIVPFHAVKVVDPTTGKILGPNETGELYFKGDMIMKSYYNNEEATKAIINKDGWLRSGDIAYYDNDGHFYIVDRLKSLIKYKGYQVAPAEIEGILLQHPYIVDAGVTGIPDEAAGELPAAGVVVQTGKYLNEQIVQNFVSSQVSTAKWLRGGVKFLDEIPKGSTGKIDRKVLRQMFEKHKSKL
Chain of Cytochrome P450 2C19 (P33261 whole entry): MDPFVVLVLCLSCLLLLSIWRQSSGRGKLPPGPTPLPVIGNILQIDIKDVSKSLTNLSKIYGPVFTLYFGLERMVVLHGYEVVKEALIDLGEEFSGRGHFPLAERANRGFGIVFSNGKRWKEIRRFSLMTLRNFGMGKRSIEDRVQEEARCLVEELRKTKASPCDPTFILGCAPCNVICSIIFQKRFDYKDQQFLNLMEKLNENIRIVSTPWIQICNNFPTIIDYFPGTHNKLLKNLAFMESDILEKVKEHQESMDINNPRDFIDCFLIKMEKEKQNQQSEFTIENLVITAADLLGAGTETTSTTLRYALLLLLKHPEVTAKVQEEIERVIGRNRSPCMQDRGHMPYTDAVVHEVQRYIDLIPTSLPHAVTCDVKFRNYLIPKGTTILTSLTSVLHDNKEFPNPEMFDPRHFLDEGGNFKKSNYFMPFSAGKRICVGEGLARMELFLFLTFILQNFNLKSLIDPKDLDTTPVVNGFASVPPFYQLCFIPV

Structure (SMILES): CNc1oc(-c2cccc3ccccc23)nc1C#N
- IC50 (Orexin receptor type 2 [3]): > 50 µM (inactive)
- IC50 [4]: 0.887 µM (active)
- IC50 [5]: > 49.7 µM (inactive)
- IC50 (CHO-K1): > 66.2 µM (inactive)
- IC50 (Orexin receptor type 2 [6]): > 88.8 µM (inactive)
- IC50 [7]: 3.48 µM (active)

Structure (SMILES): CC1=C(C(=O)OCc2ccc3c(c2)OCO3)C(c2ccc(F)cc2)NC(=O)N1 (centres undefined)
- AC50 [13]: > 52 µM (inactive)
- AC50 (HEK293): 3.36 µM (active)
- AC50 [14]: 9.67 µM (active)
- EC50 [15]: < 0.16 µM (active)
- AC50 [16]: 1.85 µM (active)
- AC50 [17]: 0.284 µM (active)
- AC50 [18]: 1.47 µM (active)
- AC50 [19]: 0.576 µM (active)

The next lines start with results.

- IC50 [1]: > 40 µM (not active)
- EC50 (Beta-galactosidase): > 40 µM (inactive)
Structure (SMILES): CC(=O)Oc1ccc(/C=C2/SC(=S)N(Cc3ccccc3)C2=O)cc1

- AC50 (Cytochrome P450 1A2): 25.1 µM (inconclusive)
- AC50 (Cytochrome P450 2C19): 1.58 µM (inconclusive)
Structure (SMILES): COc1ccc2c(c1)c(CC(=O)N1CCOCC1)c(C)n2C(=O)c1ccc(Cl)cc1 [INDOMETHACIN MORPHOLINYLAMIDE]
- AC50 [2]: 35.5 µM (inconclusive)

- IC50 [8]: 4.23 µM (active)
- IC50 [9]: 14.1 µM (active)
- IC50 [10]: 0.483 µM (active)
- IC50 [11]: 2.05 µM (active)
- IC50 [12]: 9.52 µM (active)
Structure (SMILES): CCc1ccc2nc(N3CCCC3)cc(C)c2c1
